Reference: patent publication US11802133B2, “Heterocyclic compounds as monoacylglycerol lipase inhibitors” (Hoffmann-La Roche Inc., priority 2018, dated 2023)

The compounds below were run against MAGL (recombinant wild-type) (Homo sapiens (Human), UniProt Q99685) (assay: 4-NPA assay: MAGL inhibitory activity by hydrolysis of 4-nitrophenylacetate (absorbance at 405 nm)). Details: measured in 4-NPA assay (footnote [a]); 1 nM MAGL, 300 μM 4-nitrophenylacetate.
Format: biochemical
Experimental: This assay is hereinafter abbreviated “4-NPA assay”.
The plate was shaked for 1 min at 2000 rpm (Variomag Teleshake) and then incubated for 15 min at RT. […] The final concentrations in the assay were 1 nM MAGL and 300 μM 4-Nitrophenylacetate. […] A second measurement was then done after incubation for 80 min at RT. From the two measurements, the slope was calculated by subtracting the first from the second measurement.

MAGL (recombinant wild-type), sequence (Q99685 whole entry, species assumed): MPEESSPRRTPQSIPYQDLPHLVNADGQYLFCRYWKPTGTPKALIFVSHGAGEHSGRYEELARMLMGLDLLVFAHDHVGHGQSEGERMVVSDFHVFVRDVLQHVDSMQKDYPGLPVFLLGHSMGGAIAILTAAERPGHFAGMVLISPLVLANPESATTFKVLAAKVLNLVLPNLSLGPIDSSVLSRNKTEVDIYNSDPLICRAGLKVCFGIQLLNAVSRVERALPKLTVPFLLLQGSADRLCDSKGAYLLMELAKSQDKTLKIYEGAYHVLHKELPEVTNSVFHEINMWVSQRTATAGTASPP

Structure (SMILES) | IC50 [nM]
CC1C(OCc2ccc(C(F)(F)F)cc2)CN1C(=O)N1CC[C@@H]2OCC(=O)N[C@@H]2C1 (single isomer, unassigned) [Example 103] | 5
CC1C(OCc2ccc(C(F)(F)F)cc2)CN1C(=O)N1CC[C@@H]2OCC(=O)N[C@@H]2C1 (single isomer, unassigned) [Example 104] | 451
O=C1CO[C@@H]2CCN(C(=O)N3CCC(Cn4cc(C(F)(F)F)cn4)CC3)C[C@@H]2N1 (stereo in doubt) [Example 26, (4aS,8aR)-6-(4-((4-(Trifluoromethyl)-1H-pyrazol-1-yl)methyl)piperidine-1-carbonyl)hexahydro-2H-pyrido[4,3-b][1,4]oxazin-3(4H)-one] | 684
CC(C)(C)c1csc(CC2CCN(C(=O)N3CC[C@@H]4OCC(=O)N[C@@H]4C3)CC2)n1 [Example 1, (+)-(4aR,8aS)-6-(4-((4-(tert-Butyl)thiazol-2-yl)methyl)piperidine-1-carbonyl)hexahydro-2H-pyrido[4,3-b][1,4]oxazin-3(4H)-one] | 40
CC(C)(C)c1coc(CC2CCN(C(=O)N3CC[C@@H]4OCC(=O)N[C@@H]4C3)CC2)n1 [Example 2] | 46
CC(C)(C)c1coc(CC2CCN(C(=O)N3CC[C@@H]4OCC(=O)N[C@@H]4C3)CC2)n1 [Example 4] | 92
CC(C)(C)c1csc(CC2CCN(C(=O)N3CC[C@H]4OCC(=O)N[C@H]4C3)CC2)n1 [Example 5] | 1300
O=C1CO[C@H]2CCN(C(=O)N3CCC(COc4ccc(F)cc4Cl)CC3)C[C@H]2N1 [Example 7] | 11
O=C1CO[C@H]2CCN(C(=O)N3CCC(Cc4ccc(C(F)(F)F)cc4)CC3)C[C@H]2N1 [Example 8] | 13
O=C1CO[C@H]2CCN(C(=O)N3CCC(COc4ccc(Cl)cc4)CC3)C[C@H]2N1 [Example 9] | 35
O=C1CO[C@H]2CCN(C(=O)N3CCC(Cc4ccc(Cl)cc4)CC3)C[C@H]2N1 [Example 10] | 39
O=C1CO[C@H]2CCN(C(=O)N3CCC(Oc4ccc(C(F)(F)F)cc4)CC3)C[C@H]2N1 [Example 12, (+)- or (−)-(4aR,8aS)-6-(4-(4-(Trifluoromethyl)phenoxy)piperidine-1-carbonyl)hexahydro-2H-pyrido[4,3-b][1,4]oxazin-3(4H)-one] | 77
O=C1CO[C@H]2CCN(C(=O)N3CCC(Oc4ccc(C(F)(F)F)cc4)CC3)C[C@H]2N1 [Example 13] | 87
O=C1CO[C@H]2CCN(C(=O)N3CCC(Cc4ccc(C(F)(F)F)cc4)CC3)C[C@@H]2N1 [Example 14] | 191
O=C1CO[C@H]2CCN(C(=O)N3CCC(COc4ccccc4)CC3)C[C@H]2N1 [Example 15] | 190
O=C1CO[C@H]2CCN(C(=O)N3CCC(Cc4nc5c(s4)CCC5)CC3)C[C@H]2N1 [Example 16] | 208
O=C1CO[C@H]2CCN(C(=O)N3CCC(Cc4ccc(C(F)(F)F)cc4)CC3)C[C@@H]2N1 [Example 17] | 268
O=C1CO[C@H]2CCN(C(=O)N3CCC(Cc4nc(-c5ccccc5)no4)CC3)C[C@H]2N1 [Example 18] | 892
O=C1CO[C@@H]2CCN(C(=O)N3CCC(Cc4ccc(C(F)(F)F)cc4)CC3)C[C@H]2N1 [Example 19] | 1500

Structure (SMILES) | IC50 [nM]
O=C1CO[C@@H]2CCN(C(=O)N3CCC(Cc4ccc(C(F)(F)F)cc4)CC3)C[C@@H]2N1 [Example 20] | 1800
O=C1CO[C@H]2CCN(C(=O)N3CCN(Cc4ccc(Cl)cc4)CC3)C[C@H]2N1 [Example 22] | 2100
O=C1CO[C@@H]2CCN(C(=O)N3CCC(COc4ccc(F)cc4Cl)CC3)C[C@@H]2N1 [Example 23] | 856
O=C1CO[C@H]2CCN(C(=O)N3CCC(COc4ccc(F)cc4Cl)CC3)C[C@H]2N1 [Example 24] | 4
O=C1CO[C@H]2CCN(C(=O)N3CCC(Cc4ccc(C(F)(F)F)cn4)CC3)C[C@H]2N1 [Example 25] | 452
O=C1CO[C@H]2CCN(C(=O)N3CC(OCc4ccc(C(F)(F)F)cc4F)C3)C[C@H]2N1 [Example 27] | 7
O=C1CO[C@H]2CCN(C(=O)N3CC(COc4ccc(F)cc4Cl)C3)C[C@H]2N1 [Example 28] | 18
O=C1CO[C@H]2CCN(C(=O)N3CC(OCc4ccc(C(F)(F)F)cc4F)C3)C[C@H]2N1 [Example 29] | 5
O=C1CO[C@@H]2CCN(C(=O)N3CC(OCc4ccc(C(F)(F)F)cc4F)C3)C[C@@H]2N1 [Example 30] | 273
O=C1CO[C@H]2CCN(C(=O)N3CCC(Cc4ccc(OC(F)(F)F)cc4)CC3)C[C@H]2N1 [Example 31] | 49
O=C1CO[C@H]2CCN(C(=O)N3CCC(COc4ccc(F)cc4F)CC3)C[C@H]2N1 [Example 32] | 20
O=C1CO[C@H]2CCN(C(=O)N3CCC(Cc4ccc(Cl)c(F)c4)CC3)C[C@H]2N1 [Example 33] | 4
N#Cc1ccc(CC2CCN(C(=O)N3CC[C@@H]4OCC(=O)N[C@@H]4C3)CC2)cc1 [Example 34, (+)- or (−)-4-[[1-[(4aR,8aS)-3-Oxo-4,4a,5,7,8,8a-hexahydropyrido[4,3-b][1,4]oxazine-6-carbonyl]-4-piperidyl]methyl]benzonitrile] | 438
O=C1CO[C@H]2CCN(C(=O)N3CCC(Cc4ccc(Cl)cc4)CC3)C[C@H]2N1 [Example 35] | 19
O=C1CO[C@H]2CCN(C(=O)N3CC(Cc4ccc(C(F)(F)F)cc4)C3)C[C@H]2N1 [Example 36] | 119
O=C1CO[C@H]2CCN(C(=O)N3CCC(CN4CCC(F)(F)CC4)CC3)C[C@H]2N1 [Example 37, (4aR,8aS)-6-(4-((4,4-Difluoropiperidin-1-yl)methyl)piperidine-1-carbonyl)hexahydro-2H-pyrido[4,3-b][1,4]oxazin-3(4H)-one] | 1300
CC(C)(C)c1cnc(CC2CCN(C(=O)N3CC[C@@H]4OCC(=O)N[C@@H]4C3)CC2)o1 [Example 38] | 160
COc1ccc(OCC2CCN(C(=O)N3CC[C@@H]4OCC(=O)N[C@@H]4C3)CC2)c(F)c1 [Example 39, (4aR,8aS)-6-[4-[(2-Fluoro-4-methoxyphenoxy)methyl]piperidine-1-carbonyl]-4,4a,5,7,8,8a-hexahydropyrido[4,3-b][1,4]oxazin-3-one] | 116
O=C1CO[C@H]2CCN(C(=O)N3CCC(Oc4ccc(C(F)(F)F)cc4Cl)CC3)C[C@H]2N1 [Example 40] | 12

Structure (SMILES) | IC50 [nM]
O=C1CO[C@@H]2CCN(C(=O)N3CCC(COc4ccc(C(F)(F)F)nc4)CC3)C[C@@H]2N1 [Example 42, (4aS,8aR)-6-(4-(((6-(Trifluoromethyl)pyridin-3-yl)oxy)methyl)piperidine-1-carbonyl)hexahydro-2H-pyrido[4,3-b][1,4]oxazin-3(4H)-one] | 1200
O=C1CO[C@H]2CCN(C(=O)N3CCC(COc4ccc(C(F)(F)F)nc4)CC3)C[C@H]2N1 [Example 43, (4aR,8aS)-6-(4-(((6-(trifluoromethyl)pyridin-3-yl)oxy)methyl)piperidine-1-carbonyl)hexahydro-2H-pyrido[4,3-b][1,4]oxazin-3(4H)-one] | 529
O=C1CO[C@H]2CCN(C(=O)N3CCC(Oc4cccc(C(F)(F)F)c4)CC3)C[C@H]2N1 [Example 44] | 38
O=C1CO[C@@H]2CCN(C(=O)N3CCC(COc4ccc(OC(F)(F)F)cc4Cl)CC3)C[C@@H]2N1 [Example 45] | 850
O=C1CO[C@H]2CCN(C(=O)N3CCC(COc4ccc(OC(F)(F)F)cc4Cl)CC3)C[C@H]2N1 [Example 46] | 5
O=C1CO[C@H]2CCN(C(=O)N3CC(COc4ccc(C(F)(F)F)cc4F)C3)C[C@H]2N1 [Example 47] | 5
CC1(COc2ccc(F)cc2Cl)CCN(C(=O)N2CC[C@H]3OCC(=O)N[C@H]3C2)CC1 [Example 48] | 288
O=C1CO[C@@H]2CCN(C(=O)N3CCC(COc4ccc(F)cc4F)CC3)C[C@@H]2N1 [Example 49] | 363
O=C1CO[C@H]2CCN(C(=O)N3CCC(COc4ccc(Cl)cc4F)CC3)C[C@H]2N1 [Example 50] | 8
O=C1CO[C@H]2CCN(C(=O)N3CCC(COc4ccc(F)cc4C(F)(F)F)CC3)C[C@H]2N1 [Example 51] | 10
O=C1CO[C@H]2CCN(C(=O)N3CCC(COc4ccc(C(F)(F)F)cc4F)CC3)C[C@H]2N1 [Example 52] | 58
O=C1CO[C@H]2CCN(C(=O)N3CCC(Cc4ccc(C(F)(F)F)cc4N4CCCC4)CC3)C[C@H]2N1 [Example 53] | 6
N#Cc1cc(F)ccc1OCC1CCN(C(=O)N2CC[C@@H]3OCC(=O)N[C@@H]3C2)CC1 [Example 55] | 79
O=C1CO[C@H]2CCN(C(=O)N3CCN(Cc4ccc(C(F)(F)F)cc4N4CCCC4)CC3)C[C@H]2N1 [Example 56] | 42
O=C1CO[C@H]2CCN(C(=O)N3CC(COc4ccc(F)cc4Cl)C3)C[C@H]2N1 [Example 57] | 49
O=C1CO[C@H]2CCN(C(=O)N3CCC(Cc4ccc(C(F)(F)F)cc4C4CCCC4)CC3)C[C@H]2N1 [Example 58] | 3
N#Cc1ccc(OCC2CCN(C(=O)N3CC[C@@H]4OCC(=O)N[C@@H]4C3)CC2)c(Cl)c1 [Example 59] | 12
O=C1CO[C@H]2CCN(C(=O)N3CCC(Cn4cnc(C(F)(F)F)c4)CC3)C[C@H]2N1 [Example 60] | 680
Cc1cc(F)ccc1OCC1CCN(C(=O)N2CC[C@@H]3OCC(=O)N[C@@H]3C2)CC1 [Example 61] | 11
